Measurements as given in patent US20260117184A1, “SYSTEM AND METHOD TO DIRECT THE DIFFERENTIATION OF PLURIPOTENT STEM CELL-DERIVED ODONTOBLASTS” (UNIVERSITY OF WASHINGTON, priority 2022, published 2026).

Tested on: hiPSC derived odontoblast cells (iOB)
Assay: qPCR of odontoblast markers (Example 2)
Type: cell-based, human
Conditions: iOB bFGF (100 ng/mL, 14 days) compared to conventional odontoblast differentiation method (OB)
Protocol: This project applies the DPSC derived to odontoblast protocol previously described by the lab (30), modified for hiPSC and to reflect the full signaling pathway activities as detected by the sci-RNA-seq analysis (FIG. 11A; FIGS. 15B and 15C). […] Odontogenic medium was supplemented with 50 ng/mL BMP4 (Stemcell Technologies 78211) for 7 days followed by 25 ng/mL BMP4 (Stemcell Technologies 78211) and 400 nM SAG (Stemcell Technologies 73412) for 7 days (iOB); 100 ng/mL C6 (1,2) for 14 days (iOB C6); 100 ng/mL C6 for 7 days followed by 100 ng/mL mb7 (31,32) for 7 days (iOB C6 to mb7); or 100 ng/mL recombinant basic FGF (Gibco 13256-029) for 14 days (iOB bFGF). […]
To analyze gene expression, cells were dissociated and lysed with Trizol (Life Technology) with cell pellets stored at −80° C. RNA purification is performed via TURBO DNA-Free™ Kit (Invitrogen) or Aurum™ Total RNA Mini Kit (Bio-Rad), purity and concentration quantification via Nanodrop ND-1000 (Thermo Fisher Scientific). cDNA synthesis via iScript™ cDNA Synthesis Kit (Bio-Rad) or Applied Biosystems™ High-Capacity cDNA Reverse Transcription Kit (Thermo Fisher Scientific), and qPCR performed using oligonucleotide primers for neural crest and odontoblast markers (Table 3), SYBR Green reporter (Applied Biosystems) and 7300 Real-Time PCR System (Applied Biosystems). […]

Substance: bFGF: recombinant basic FGF (Gibco 13256-029)
- DSPP and DMP1 expression: increased DSPP and DMP1 expression
